Read-outs that look alike come from different tables or passages of the source.
Test system: TNF-α induced IL-6
Assay: TNF-α-induced IL-6 production determined by IL-6 ELISA
Type: cell-based
Conditions: for activity at 10 µM / inhibition at 10 µM: Homo sapiens, 24 h; for Inflammation Data (result in words): concentration not given; for inhibition at 10 µM: Table 7, first part
Description: Human aortic endothelial cells (HAEC, Clonetics) were cultured according to manufacturer in growth medium (Clonetics): basal medium containing human epidermal growth factor, hydrocortisone, vascular endothelial growth factor, heparin binding growth factor-B, long R3-insulin-like growth factor-1, ascorbic acid, gentamicin/amphotericin and 5% FBS. These cell were allowed to reach at least 90% confluency before subjected to experimental treatments. […] Tumor necrosis factor α was from R&D Systems.
All treatments, compound-added and controls were carried out in serum free media containing 0.2% albumin. Media from all conditions were collected and used for IL-6 ELISA.
IL-6 ELISA was carried out using human IL-6 DuoSet ELISA development kit as described by manufacturer (R&D Systems). Mouse anti-human Il-6 was used as the capture antibody (2 ug/ml) and biotinylated goat anti-human IL-6 (200 ng/ml) was used as the detection antibody. Culture media were incubated with capture antibody (in 96 well) for 2 h at room temperature. Wells were washed three times with wash buffer (0.05% tween-20 in phosphate buffered saline (PBS) pH 7.4) followed by incubation with detection antibody for 2 h at room temperature. Following three washes wells were incubated with Streptavidin-HRP for 20 min. Color development was read at 450 nm in a Microplate reader.

[1] = Table 5, first part, class = % of control IL6 production, read-out: Inhibition of TNF-induced IL6 production
[2] = Table 5, second part, column 1, class = % of control IL6 production, read-out: Inhibition of TNF-induced IL6, production
[3] = read-out: Inhibition of TNF-induced IL6 production

Row | SMILES | activity at 10 µM [1] [%] | activity at 10 µM [2] [%] | other results
1 | CCN1CCCC1CNc1nc(Nc2ccc(N3CCOCC3)cc2)nc(NC2CCCCCC2)n1 (centres unmarked) [Compound 27, N^2-cycloheptyl-N^4-[(1-ethyl-2-pyrrolidinyl)methyl]-N^6-[4-(4-morpholinyl)phenyl]-1,3,5-triazine-2,4,6-triamine] | 0 to 25 | 0 to 25 | 
2 | CCN1CCCC1CNc1nc(NC2CCCCCC2)nc(N(C)c2ccc(OC)cc2)n1 (centres unmarked) [Compound 42, N^2-cycloheptyl-N^4-[(1-ethyl-2-pyrrolidinyl)methyl]-N^6-(4-methoxyphenyl)-N^6-methyl-1,3,5-triazine-2,4,6-triamine] | 0 to 25 | 0 to 25 | 
3 | CCN1CCCC1CNc1nc(Nc2ccc(OC)c(F)c2)nc(NC2CCCCCC2)n1 (centres unmarked) [Compound 95, N^2-cycloheptyl-N^4-[(1-ethyl-2-pyrrolidinyl)methyl]-N^6-(3-fluoro-4-methoxyphenyl)-1,3,5-triazine-2,4,6-triamine] |  |  | activity at 10 µM (read-out: Inhibition of TNF-induced IL6, production): 0 to 25%; activity at 10 µM [3]: 0 to 25%
4 | CCN1CCCC1CNc1nc(Nc2ccc(OC)c(F)c2)nc(N2CCCC2)n1 (centres unmarked) [Compound 57, N^2-[(1-ethyl-2-pyrrolidinyl)methyl]-N^4-(3-fluoro-4-methoxyphenyl)-6-(1-pyrrolidinyl)-1,3,5-triazine-2,4-diamine] | 0 to 25 | 25 to 50 | 
5 | CCN1CCCC1CNc1nc(NC2CCCCCC2)nc(N(CCC#N)c2ccccc2)n1 (centres unmarked) [Compound 41, 3-[(4-(cycloheptylamino)-6-{[(1-ethyl-2-pyrrolidinyl)methyl]amino}-1,3,5-triazin-2-yl)-(phenyl)amino]propanenitrile] |  | 0 to 25 | 
6 | COc1ccc(Nc2nc(NC3CCCCCC3)nc(N3CCSCC3)n2)cc1Cl [drawing 1604] |  |  | Inflammation Data (result in words): Not Active
7 | CCN1CCCC1CNc1nc(NCc2ccccc2)nc(Nc2ccc(OC)c(F)c2)n1 (centres unmarked) [Compound 53, N^2-benzyl-N^4-[(1-ethyl-2-pyrrolidinyl)methyl]-N^6-(3-fluoro-4-methoxyphenyl)-1,3,5-triazine-2,4,6-triamine] | 0 to 25 | 25 to 50 | 
8 | CCN1CCCC1CNc1nc(NC2CCCCCC2)nc(N(C)c2ccccc2C(F)(F)F)n1 (centres unmarked) [Compound 46, N^2-cycloheptyl-N^4-[(1-ethyl-2-pyrrolidinyl)methyl]-N^6-methyl-N^6-[2-(trifluoromethyl)phenyl]-1,3,5-triazine-2,4,6-triamine] |  | 0 to 25 | 
9 | CCN1CCC[C@H]1CNc1nc(NC2CCCCCC2)nc(N(CC#N)c2ccccc2)n1 [Compound 143, ({4-cycloheptylamino-6-[((S)-1-ethyl-pyrrolidin-2-ylmethyl)-amino]-1,3,5-triazin-2-yl}-phenyl-amino)-acetonitrile] | 0 to 25 |  | % IL6 production compare to TNF stimulation of IL6 (100%), Compds tested @ 10 uM HAEC, IL6 (HAEC, 10 uM compound, TNF stimulation = 100%): 18.88%
10 | COc1ccc(Nc2nc(NC3CCCCCC3)nc(OCCOc3ccccc3F)n2)cc1Cl |  |  | Inflammation Data (result in words): Not Active
11 | CCNc1nc(NCC2CCCN2CC)nc(Nc2ccc(OC)c(F)c2)n1 (centres unmarked) [Compound 51, N^2-ethyl-N^4-[(1-ethyl-2-pyrrolidinyl)methyl]-N^6-(3-fluoro-4-methoxyphenyl)-1,3,5-triazine-2,4,6-triamine] | 0 to 25 |  | 
12 | CCN1CCCC1CNc1nc(Nc2ccc(OC)c(F)c2)nc(NC(C)(C)C)n1 (centres unmarked) [Compound 52, N^2-(tert-butyl)-N^4-[(1-ethyl-2-pyrrolidinyl)methyl]-N^6-(3-fluoro-4-methoxyphenyl)-1,3,5-triazine-2,4,6-triamine] | 0 to 25 | 25 to 50 | 
13 | CCOc1ccc(Nc2nc(NCC3CCCN3CC)nc(NC3CCCCCC3)n2)cc1 (centres unmarked) [Compound 32, N^2-cycloheptyl-N^4-(4-ethoxyphenyl)-N^6-[(1-ethyl-2-pyrrolidinyl)methyl]-1,3,5-triazine-2,4,6-triamine] |  | 0 to 25 | 
14 | CCN1CCCC1CNc1nc(NCCN2CCCCC2)nc(Nc2ccc(OC)c(F)c2)n1 (centres unmarked) [Compound 71, N^2-[(1-ethyl-2-pyrrolidinyl)methyl]-N^4-(3-fluoro-4-methoxyphenyl)-N^6-[2-(1-piperidinyl)ethyl]-1,3,5-triazine-2,4,6-triamine] | 0 to 25 | 25 to 50 | 
15 | CCN1CCCC1CNc1nc(Nc2ccc(F)cc2)nc(NC2CCCCCC2)n1 (centres unmarked) [Compound 10, N^2-cycloheptyl-N^4-[(1-ethyl-2-pyrrolidinyl)methyl]-N^6-(4-fluorophenyl)-1,3,5-triazine-2,4,6-triamine] |  | 0 to 25 | 
16 | COc1ccc(Nc2nc(NC3CC3)nc(N(C)C3CCN(C)CC3)n2)cc1Cl |  |  | Inflammation Data, cell death at 10 uM (10 uM): 15%; Inflammation Data (result in words): Not active
17 | CCN1CCCC1CNc1nc(Nc2ccc(OC)c(F)c2)nc(NC2CCC(C)CC2)n1 (centres unmarked) [Compound 60, N^2-[(1-ethyl-2-pyrrolidinyl)methyl]-N^4-(3-fluoro-4-methoxyphenyl)-N^6-(4-methylcyclohexyl)-1,3,5-triazine-2,4,6-triamine] | 0 to 25 |  | 
18 | COc1ccc(Nc2nc(N3CCOCC3)nc(N3CCN(Cc4ccccc4)CC3)n2)cc1 [Compound 173, [4-(4-Benzyl-piperazin-1-yl)-6-morpholin-4-yl-[1,3,5]tri-azin-2-yl]-(4-methoxy-phenyl)-amine] |  |  | inhibition at 10 µM [3]: 65 to 85%
19 | COc1ccc(Nc2nc(NCCCCCO)nc(N(C)C3CCN(C)CC3)n2)cc1Cl [Compound 108, 5-{4-(3-Chloro-4-methoxy-phenylamino)-6-[methyl-(1-methyl-piperidin-4-yl)-amino]-[1,3,5]triazin-2-ylamino}-pentan-1-ol] |  |  | activity at 10 µM (read-out: % IL6 production compare to TNF stimulation of IL6 (100%), Compds tested @ 10 uM HAEC, IL6): 25%; activity at 10 µM [3]: 25 to 50%
20 | CCN1CCCC1CNc1nc(Nc2ccc(OC)c(F)c2)nc(N2CCN(C(C)=O)CC2)n1 (centres unmarked) [Compound 63, 6-(4-acetyl-1-piperazinyl)-N^2-[(1-ethyl-2-pyrrolidinyl)methyl]-N^4-(3-fluoro-4-methoxyphenyl)-1,3,5-triazine-2,4-diamine] | 25 to 50 |  | 
21 | c1ccc(Nc2nc(NC3CCCCCC3)nc(N3CCOCC3)n2)cc1 [Compound 176, N-Cycloheptyl-6-morpholin-4-yl-N′-phenyl-[1,3,5]tri-azine-2,4-diamine] |  |  | inhibition at 10 µM [3]: 85 to 100%
22 | CCN1CCCC1CNc1nc(Nc2ccc3ncccc3c2)nc(NC2CCCCCC2)n1 (centres unmarked) [Compound 4, N^2-cycloheptyl-N^4-[(1-ethyl-2-pyrrolidinyl)methyl]-N^6-(6-quinolinyl)-1,3,5-triazine-2,4,6-triamine] |  | 0 to 25 | 
23 | CCN1CCCC1CNc1nc(NCCCN2CCCC2=O)nc(Nc2ccc(OC)c(F)c2)n1 (centres unmarked) [Compound 74, 1-[3-({4-{[(1-ethyl-2-pyrrolidinyl)methyl]amino}-6-[(3-fluoro-4-methoxyphenyl)amino]-1,3,5-triazin-2-yl}amino)propyl]-2-pyrrolidinone] |  | 25 to 50 | 
24 | CCN1CCCC1CNc1nc(NCCCn2ccnc2)nc(Nc2ccc(OC)c(F)c2)n1 (centres unmarked) [Compound 75, N^2-[(1-ethyl-2-pyrrolidinyl)methyl]-N^4-(3-fluoro-4-methoxyphenyl)-N^6-[3-(1H-imidazol-1-yl)propyl]-1,3,5-triazine-2,4,6-triamine] | 25 to 50 | 25 to 50 | 
